Assay results taken from patent publication US9932340B2, “Substituted indoles” (AbbVie Inc., priority 2014, dated 2018).

molecular target: SUV420H1 enzyme (Homo sapiens, UniProt Q4FZB7); experiment: TR-FRET SAH SUV420H1 enzyme inhibition assay; type: biochemical; conditions: Histone Peptide H4(8-30)me1 and SAM, overnight at room temp, TR-FRET detection of SAH, read-out: TR-FRET SAH_SUV420H1 IC50
Protocol: Test compounds were dispensed by a Labcyte Echo in 384-well low volume assay plates with 3-fold serial dilutions from 50 μM to 0.00075 μM. 5 μL of SUV420H1 enzyme (Abbvie) at 90 nM was added to all wells except the no enzyme control wells, and incubated for 30 minutes at room temp before 5 μL of Histone Peptide H4(8-30)me1 (Anaspec) at 5 nM and SAM at 4 nM was added to all wells. The plates were incubated in a humidified chamber overnight at room temp and then 10 μL of the detection reagent that contained RIPA buffer (50 mM Tris-HCl, pH 8.0, 150 mM sodium chloride, 1.0% Igepal CA-630 (NP-40), 0.5% sodium deoxycholate and 0.1% sodium dodecyl sulfate) (Sigma) with 2 nM of Terbium chelate anti S-adenosyl-L-homocysteine (SAH) (Abbvie) antibody and Oregon Green labeled SAH at 4 nM was added. The plates were further incubated for 4 hours at room temperature. The plates were read in a Perkin Elmer Envision using a TR-FRET protocol with Excitation set at 335 nm and Emission at 520 and 495 nm. To generate dose response curves the data is normalized to percent inhibition by setting the average of the plus and minus enzyme control wells to 0% and 100% inhibition respectively. The IC50 values for the compounds are generated by fitting the normalized data with Accelrys Assay Explorer 3.3 to a sigmoidal curve model using […] regression, Y=(100*x^n)/(K^n+x^n), where Y is the measured response, x is the compound concentration, n is the Hill Slope and K is the IC50 and the lower and higher asymptotes are constrained to 0 and 100 respectively.

SUV420H1 enzyme, sequence (Q4FZB7 whole entry): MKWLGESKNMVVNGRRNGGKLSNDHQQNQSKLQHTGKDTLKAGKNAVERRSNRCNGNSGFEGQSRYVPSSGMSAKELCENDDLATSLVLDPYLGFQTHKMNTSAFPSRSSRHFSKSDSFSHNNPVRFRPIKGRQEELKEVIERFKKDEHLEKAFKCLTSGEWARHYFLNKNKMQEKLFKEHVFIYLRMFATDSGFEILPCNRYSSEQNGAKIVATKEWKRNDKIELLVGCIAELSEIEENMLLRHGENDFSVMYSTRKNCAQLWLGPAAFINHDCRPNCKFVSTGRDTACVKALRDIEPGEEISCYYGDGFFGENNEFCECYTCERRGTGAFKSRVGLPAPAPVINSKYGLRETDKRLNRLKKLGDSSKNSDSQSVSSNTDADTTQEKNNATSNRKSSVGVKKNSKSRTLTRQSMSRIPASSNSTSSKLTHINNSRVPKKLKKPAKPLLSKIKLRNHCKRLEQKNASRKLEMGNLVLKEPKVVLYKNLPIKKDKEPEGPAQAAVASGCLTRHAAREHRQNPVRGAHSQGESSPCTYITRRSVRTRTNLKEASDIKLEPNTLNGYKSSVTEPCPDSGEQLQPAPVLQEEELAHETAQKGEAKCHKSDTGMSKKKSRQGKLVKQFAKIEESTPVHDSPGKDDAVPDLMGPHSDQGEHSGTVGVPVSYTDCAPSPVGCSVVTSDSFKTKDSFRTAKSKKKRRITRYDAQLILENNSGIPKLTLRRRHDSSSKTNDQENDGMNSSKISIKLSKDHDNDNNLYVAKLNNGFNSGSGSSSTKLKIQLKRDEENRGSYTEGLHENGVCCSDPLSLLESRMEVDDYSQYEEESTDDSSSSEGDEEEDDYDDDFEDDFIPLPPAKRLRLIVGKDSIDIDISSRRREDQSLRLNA

Row | SMILES | IC50 [nM]
1 | Cc1noc(C)c1C(=O)NCc1cc2cc(-c3ccc(C(=O)N(C)C)cc3)cc(Cn3cnc4c(N)ncnc43)c2[nH]1 [Example 176, N-({7-[(6-amino-9H-purin-9-yl)methyl]-5-[4-(dimethylcarbamoyl)phenyl]-1H-indol-2-yl}methyl)-3,5-dimethyl-1,2-oxazole-4-carboxamide] | 87.5
2 | Nc1ncnc2c1ncn2Cc1cc(Cl)cc2cc(CNC(=O)C3CCCO3)[nH]c12 (centres unmarked) [Example 113, N-({7-[(6-amino-9H-purin-9-yl)methyl]-5-chloro-1H-indol-2-yl}methyl)tetrahydrofuran-2-carboxamide] | > 50000
3 | COCC(=O)NCc1cc2cc(Cl)cc(Cn3cnc4c(N)ncnc43)c2[nH]1 [Example 95, N-({7-[(6-amino-9H-purin-9-yl)methyl]-5-chloro-1H-indol-2-yl}methyl)-2-methoxyacetamide] | > 50000
4 | COc1cccc(-c2cc(Cn3cnc4c(N)ncnc43)c3[nH]c(CN)cc3c2)c1 [Example 35, 9-{[2-(aminomethyl)-5-(3-methoxyphenyl)-1H-indol-7-yl]methyl}-9H-purin-6-amine] | 1090
5 | CS(=O)(=O)c1cccc(CNCc2cc3cc(Cl)cc(Cn4cnc5c(N)ncnc54)c3[nH]2)c1 [Example 262, 9-{[5-chloro-2-({[3-(methylsulfonyl)benzyl]amino}methyl)-1H-indol-7-yl]methyl}-9H-purin-6-amine] | 2750
6 | NCc1cc2c(-c3ccccc3Cl)ccc(Cn3cnc4c(N)ncnc43)c2[nH]1 [Example 72, 9-{[2-(aminomethyl)-4-(2-chlorophenyl)-1H-indol-7-yl]methyl}-9H-purin-6-amine] | 1810
7 | Nc1ncnc2c1ncn2Cc1cc(Cl)cc2cc(CNC(=O)c3ccc4[nH]ccc4c3)[nH]c12 [Example 357, N-({7-[(6-amino-9H-purin-9-yl)methyl]-5-chloro-1H-indol-2-yl}methyl)-1H-indole-5-carboxamide] | 12000
8 | CC(C)CC(=O)NCc1cc2cc(Cl)cc(Cn3cnc4c(N)ncnc43)c2[nH]1 [Example 102, N-({7-[(6-amino-9H-purin-9-yl)methyl]-5-chloro-1H-indol-2-yl}methyl)-3-methylbutanamide] | 6360
9 | Cc1noc(C2CC2)c1C(=O)NCc1cc2cc(Cl)cc(Cn3cnc4c(N)ncnc43)c2[nH]1 [Example 190, N-({7-[(6-amino-9H-purin-9-yl)methyl]-5-chloro-1H-indol-2-yl}methyl)-5-cyclopropyl-3-methyl-1,2-oxazole-4-carboxamide] | 910
10 | Cn1cccc1C(=O)NCc1cc2cc(Cl)cc(Cn3cnc4c(N)ncnc43)c2[nH]1 [Example 160, N-({7-[(6-amino-9H-purin-9-yl)methyl]-5-chloro-1H-indol-2-yl}methyl)-1-methyl-1H-pyrrole-2-carboxamide] | 16800
11 | N#Cc1ccc(-c2cc(Cn3cnc4c(N)ncnc43)c3[nH]c(CN)cc3c2)cc1 [Example 38, 4-{2-(aminomethyl)-7-[(6-amino-9H-purin-9-yl)methyl]-1H-indol-5-yl}benzonitrile] | 810
12 | Nc1ncnc2c1ncn2Cc1cc(Cl)cc2cc(CNC(=O)c3ccc4[nH]ccc4n3)[nH]c12 [Example 343, N-({7-[(6-amino-9H-purin-9-yl)methyl]-5-chloro-1H-indol-2-yl}methyl)-1H-pyrrolo[3,2-b]pyridine-5-carboxamide] | 4820
13 | Nc1ncnc2c1ncn2Cc1cc(Cl)cc2cc(CNCc3cccc(Cl)c3)[nH]c12 [Example 209, 9-[(5-chloro-2-{[(3-chlorobenzyl)amino]methyl}-1H-indol-7-yl)methyl]-9H-purin-6-amine] | 1920
14 | Nc1ncnc2c1ncn2Cc1cc(Cl)cc2cc(CNC(=O)CN3CCCC3)[nH]c12 [Example 120, N-({7-[(6-amino-9H-purin-9-yl)methyl]-5-chloro-1H-indol-2-yl}methyl)-2-(pyrrolidin-1-yl)acetamide] | 1490
15 | Nc1ncnc2c1ncn2Cc1cc(Cl)cc2cc(CNC(=O)c3cnn4c3CCCC4)[nH]c12 [Example 192, N-({7-[(6-amino-9H-purin-9-yl)methyl]-5-chloro-1H-indol-2-yl}methyl)-4,5,6,7-tetrahydropyrazolo[1,5-a]pyridine-3-carboxamide] | 2140
16 | NCc1cc2cc(C3=CCNCC3)cc(Cn3cnc4c(N)ncnc43)c2[nH]1 [Example 13, 9-{[2-(aminomethyl)-5-(1,2,3,6-tetrahydropyridin-4-yl)-1H-indol-7-yl]methyl}-9H-purin-6-amine] | 135
17 | CC(C)c1noc2ncc(C(=O)NCc3cc4cc(Cl)cc(Cn5cnc6c(N)ncnc65)c4[nH]3)cc12 [Example 370, N-({7-[(6-amino-9H-purin-9-yl)methyl]-5-chloro-1H-indol-2-yl}methyl)-3-(propan-2-yl)[1,2]oxazolo[5,4-b]pyridine-5-carboxamide] | 1690
18 | N#Cc1ccc(CNCc2cc3cc(Cl)cc(Cn4cnc5c(N)ncnc54)c3[nH]2)cc1 [Example 267, 4-{[({7-[(6-amino-9H-purin-9-yl)methyl]-5-chloro-1H-indol-2-yl}methyl)amino]methyl}benzonitrile] | 3430
19 | Cc1noc(C)c1C(=O)NCc1cc2cc(Cl)cc(Cn3cnc4c(N)ncnc43)c2[nH]1 [Example 162, N-({7-[(6-amino-9H-purin-9-yl)methyl]-5-chloro-1H-indol-2-yl}methyl)-3,5-dimethyl-1,2-oxazole-4-carboxamide] | 237
20 | Nc1ncnc2c1ncn2Cc1cc(Cl)cc2cc(CNC(=O)Cc3ccc(Cl)cc3)[nH]c12 [Example 251, N-({7-[(6-amino-9H-purin-9-yl)methyl]-5-chloro-1H-indol-2-yl}methyl)-2-(4-chlorophenyl)acetamide] | > 50000
21 | CC1(C(=O)NCc2cc3cc(Cl)cc(Cn4cnc5c(N)ncnc54)c3[nH]2)CC1 [Example 108, N-({7-[(6-amino-9H-purin-9-yl)methyl]-5-chloro-1H-indol-2-yl}methyl)-1-methylcyclopropanecarboxamide] | 17000
22 | Cn1nc(C(=O)NCc2cc3cc(Cl)cc(Cn4cnc5c(N)ncnc54)c3[nH]2)c2c1CCC2 [Example 191, N-({7-[(6-amino-9H-purin-9-yl)methyl]-5-chloro-1H-indol-2-yl}methyl)-1-methyl-1,4,5,6-tetrahydrocyclopenta[c]pyrazole-3-carboxamide] | 2980
23 | Nc1ncnc2c1ncn2Cc1cc(Cl)cc2cc(CNC(=O)[C@@H]3CCCN3)[nH]c12 [Example 115, (2S)—N-({7-[(6-amino-9H-purin-9-yl)methyl]-5-chloro-1H-indol-2-yl}methyl)pyrrolidine-2-carboxamide] | 3530
24 | N#Cc1cc(Cl)c(C(=O)NCc2cc3cc(Cl)cc(Cn4cnc5c(N)ncnc54)c3[nH]2)c(Cl)c1 [Example 283, N-({7-[(6-amino-9H-purin-9-yl)methyl]-5-chloro-1H-indol-2-yl}methyl)-2,6-dichloro-4-cyanobenzamide] | 52.6
25 | COc1cscc1C(=O)NCc1cc2cc(Cl)cc(Cn3cnc4c(N)ncnc43)c2[nH]1 [Example 158, N-({7-[(6-amino-9H-purin-9-yl)methyl]-5-chloro-1H-indol-2-yl}methyl)-4-methoxythiophene-3-carboxamide] | 4750
26 | COc1ccc(-c2cc(Cn3cnc4c(N)ncnc43)c3[nH]c(CNC(=O)c4c(C)noc4C)cc3c2)cc1 [Example 168, N-({7-[(6-amino-9H-purin-9-yl)methyl]-5-(4-methoxyphenyl)-1H-indol-2-yl}methyl)-3,5-dimethyl-1,2-oxazole-4-carboxamide] | 333
